Experimental data published in US20260355212A1 (priority 2022, published 2026).
Read-outs that look alike come from different tables or passages of the source.

Key:
MERS Mpro = MERS Mpro (Middle East respiratory syndrome-related coronavirus, UniProt K9N7C7); assay: biochemical; set-up: species or system MERS-CoV
SARS-CoV-1 Mpro = SARS-CoV-1 Mpro (Severe acute respiratory syndrome coronavirus, UniProt P0C6X7); assay: biochemical
SARS-CoV-2 Mpro = SARS-CoV-2 Mpro (Severe acute respiratory syndrome coronavirus 2, UniProt P0DTD1); assay: SARS-CoV-2 Mpro enzymatic inhibition assay (fluorescence); assay type: biochemical
Summary of the method: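 Recombinant Mpro expressed in E. coli was preincubated 30 min at room temperature with 10-point, 3-fold serially diluted compound in duplicate. Fluorogenic substrate was then added and incubated 60 min at 30° C, and fluorescence read at Ex/Em 340/490 nm. IC50 came from a four-parameter fit of % inhibition.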

HCoV-HKU1 Mpro = HCoV-HKU1 Mpro (Human coronavirus HKU1, UniProt P0C6X2); assay: HCoV-HKU1 Mpro enzymatic inhibition assay (fluorescence); assay type: biochemical
Chain of HCoV-HKU1 Mpro (P0C6X2 3335-3637 limits assumed): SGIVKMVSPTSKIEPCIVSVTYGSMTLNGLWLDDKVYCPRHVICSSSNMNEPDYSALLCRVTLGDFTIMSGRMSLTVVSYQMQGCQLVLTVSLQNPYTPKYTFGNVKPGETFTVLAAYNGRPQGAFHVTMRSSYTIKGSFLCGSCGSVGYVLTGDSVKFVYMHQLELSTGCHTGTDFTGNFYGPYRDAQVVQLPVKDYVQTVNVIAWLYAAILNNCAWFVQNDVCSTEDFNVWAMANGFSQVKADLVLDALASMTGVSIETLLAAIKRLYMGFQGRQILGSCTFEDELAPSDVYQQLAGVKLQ
Procedure: (§1) The hCoV Mpro are cloned, expressed in E. coli and purified by WuXi AppTec Co., Ltd. The substrate are synthesized by Genscript Biotech.
(§2) Compounds are 3 fold serially diluted for 10 doses and added to an assay plate (384w format) using ECHO, in duplicate wells. The test concentration of test compounds is defined by sponsor. […] For no inhibition control (ZPE, zero percent effect), DMSO is added.
(§3) 25 μL of Mpro proteins are added to the assay plates containing compounds, respectively, using Multidrop. The compounds and Mpro proteins are pre-incubated at room temperature for 30 min. Then 5 µL of Mpro substrates are added to the related assay plates, respectively. Each activity testing point has a relevant background control to normalize the fluorescence interference of compound.
(§4) After 60 min incubation at 30° C., the fluorescence signal (RFU) is detected using a microplate reader M2e (SpectraMax) at Ex/Em=340 nm/490 nm.
(§5) The inhibition activity is calculated using the formula below, IC50 values will be calculated using the Inhibition % data.
(§6) Inhibition %=[(CPD−BGCPD)−(ZPE−BGZPE)/(HPE−BGHPE)−(ZPE−BGZPE)]×[…] • CPD: Signal of test compounds wells, containing compound+enzyme+substrate. • ZPE: Average of signals of zero percent effective control wells, containing enzyme+substrate, no compound. • HPE: Average of signals of hundred percent effect control wells, containing GC376+enzyme+substrate. • BG: Compound background control wells, containing compound+substrate, no enzyme
(§7) IC50 values of compounds are calculated with the GraphPad Prism software using the nonlinear regression model of log(inhibitor) vs. response—Variable slope (four parameters).

HCoV-NL63 Mpro = HCoV-NL63 Mpro (Human coronavirus NL63, UniProt P0C6X5); assay: HCoV-NL63 Mpro enzymatic inhibition assay (fluorescence); assay type: biochemical
Chain of HCoV-NL63 Mpro (P0C6X5 2940-3242 limits assumed): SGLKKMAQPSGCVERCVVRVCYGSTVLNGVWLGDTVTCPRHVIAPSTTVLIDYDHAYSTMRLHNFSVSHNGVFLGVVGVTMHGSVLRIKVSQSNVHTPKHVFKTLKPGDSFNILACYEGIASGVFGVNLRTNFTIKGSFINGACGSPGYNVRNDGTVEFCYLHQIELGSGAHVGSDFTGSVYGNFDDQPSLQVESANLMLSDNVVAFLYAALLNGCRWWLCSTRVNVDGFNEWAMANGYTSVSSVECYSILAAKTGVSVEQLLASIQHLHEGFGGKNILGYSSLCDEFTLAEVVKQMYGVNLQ
Procedure: as §1, §2, §3, §4, §5, §6, §7

HCoV-OC43 Mpro = HCoV-OC43 Mpro (Human coronavirus OC43, UniProt P0C6X6); assay: HCoV-OC43 Mpro enzymatic inhibition assay (fluorescence); assay type: biochemical
Chain of HCoV-OC43 Mpro (P0C6X6 3247-3549 limits assumed): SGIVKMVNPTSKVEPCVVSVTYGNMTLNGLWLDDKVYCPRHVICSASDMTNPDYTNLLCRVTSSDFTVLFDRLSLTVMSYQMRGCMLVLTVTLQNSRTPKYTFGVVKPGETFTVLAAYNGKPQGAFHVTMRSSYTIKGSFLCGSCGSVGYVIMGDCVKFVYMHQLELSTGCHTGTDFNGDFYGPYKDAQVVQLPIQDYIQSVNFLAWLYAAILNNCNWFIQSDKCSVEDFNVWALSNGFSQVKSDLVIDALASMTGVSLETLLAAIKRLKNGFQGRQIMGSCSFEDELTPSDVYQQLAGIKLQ
Procedure: as §1, §2, §3, §4, §5, §6, §7

HCoV-229E Mpro = HCoV-229E Mpro (Human coronavirus 229E, UniProt P0C6X1); assay: HCoV-229E Mpro enzymatic inhibition assay (fluorescence); assay type: biochemical
Chain of HCoV-229E Mpro (P0C6X1 2966-3267 limits assumed): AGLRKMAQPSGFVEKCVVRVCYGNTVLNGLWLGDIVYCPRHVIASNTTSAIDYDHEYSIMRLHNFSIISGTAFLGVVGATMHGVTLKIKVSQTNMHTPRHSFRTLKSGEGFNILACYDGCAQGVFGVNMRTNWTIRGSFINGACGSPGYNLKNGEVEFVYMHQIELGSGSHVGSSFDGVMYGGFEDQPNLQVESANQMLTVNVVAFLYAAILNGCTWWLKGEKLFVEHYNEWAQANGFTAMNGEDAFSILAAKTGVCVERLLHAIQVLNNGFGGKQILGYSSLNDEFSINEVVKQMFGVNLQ
Procedure: as §1, §2, §3, §4, §5, §6, §7

Chain of MERS Mpro (K9N7C7 3248-3553 limits assumed): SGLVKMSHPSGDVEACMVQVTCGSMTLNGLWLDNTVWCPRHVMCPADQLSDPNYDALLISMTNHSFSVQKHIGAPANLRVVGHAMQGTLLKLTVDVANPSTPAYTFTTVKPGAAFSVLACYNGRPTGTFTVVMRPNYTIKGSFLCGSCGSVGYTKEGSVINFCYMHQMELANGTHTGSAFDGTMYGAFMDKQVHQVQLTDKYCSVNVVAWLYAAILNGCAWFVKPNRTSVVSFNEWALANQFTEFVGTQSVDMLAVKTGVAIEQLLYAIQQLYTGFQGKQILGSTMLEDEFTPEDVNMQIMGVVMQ

SMILES | IC50 (MERS Mpro) | IC50 (SARS-CoV-1 Mpro) | IC50 (SARS-CoV-2 Mpro) | IC50 (HCoV-HKU1 Mpro) | IC50 (HCoV-NL63 Mpro) | IC50 (HCoV-OC43 Mpro) | IC50 (HCoV-229E Mpro) | IC50 (SARS-CoV-2 Mpro; mean, 25 nM protein, 25 μM substrate, 30 min pre-incubation, 60 min at 30° C., read-out: Mpro_SARS-CoV-2 mean IC50)
CC1(C)[C@@H]2[C@@H](C(=O)N[C@H](C=O)C[C@@H]3CCNC3=O)N(C(=O)c3cc4cc(F)ccc4[nH]3)C[C@@H]21 [Compound 24, (1R,2S,5S)-3-(5-fluoro-1H-indole-2-carbonyl)-N-[(1S)-1-formyl-2-[(3S)-2-oxopyrrolidin-3-yl]ethyl]-6,6-dimethyl-3-azabicyclo[3.1.0]hexane-2-carboxamide] | 271 nM | 73.6 nM | 16.6 nM | 31.8 nM | 71.7 nM | 60.5 nM | 32.3 nM | 
CC1(C)[C@@H]2[C@@H](C(=O)N[C@H](C=O)C[C@@H]3CCCNC3=O)N(C(=O)c3cc4cccc(Cl)c4[nH]3)C[C@@H]21 [Compound 25, (1R,2S,5S)-3-(7-chloro-1H-indole-2-carbonyl)-6,6-dimethyl-N—((S)-1-oxo-3-((S)-2-oxopiperidin-3-yl)propan-2-yl)-3-azabicyclo[3.1.0]hexane-2-carboxamide] | 140 nM | 24 nM | 16.7 nM | 30.2 nM | 53.8 nM | 43 nM | 33.8 nM | 
O=C[C@H](C[C@@H]1CCNC1=O)NC(=O)[C@@H]1[C@H]2CCC[C@H]2CN1C(=O)c1cc2ccccc2[nH]1 [Compound 26, (1S,3aR,6aS)-2-(1H-indole-2-carbonyl)-N—((S)-1-oxo-3-((S)-2-oxopyrrolidin-3-yl)propan-2-yl)octahydrocyclopenta[c]pyrrole-1-carboxamide] | 173 nM | 93.7 nM | 16.8 nM | 20.7 nM | 37.8 nM | 28.6 nM | 42.7 nM | 
CC1(C)[C@@H]2[C@@H](C(=O)N[C@H](C=O)C[C@@H]3CCNC3=O)N(C(=O)c3cc4cc5c(cc4[nH]3)OCO5)C[C@@H]21 [Compound 27, (1R,2S,5S)-3-(5H-[1,3]dioxolo[4,5-f]indole-6-carbonyl)-6,6-dimethyl-N—((S)-1-oxo-3-((S)-2-oxopyrrolidin-3-yl)propan-2-yl)-3-azabicyclo[3.1.0]hexane-2-carboxamide] | 466 nM | 52.8 nM | 17.2 nM | 49 nM | 82.8 nM | 89.2 nM | 54.7 nM | 
COc1ccc(Cl)c2[nH]c(C(=O)N3C[C@H]4[C@@H]([C@H]3C(=O)N[C@H](C=O)C[C@@H]3CCNC3=O)C4(C)C)cc12 [Compound 28, (1R,2S,5S)-3-(7-chloro-4-methoxy-1H-indole-2-carbonyl)-6,6-dimethyl-N—((S)-1-oxo-3-((S)-2-oxopyrrolidin-3-yl)propan-2-yl)-3-azabicyclo[3.1.0]hexane-2-carboxamide] | 224 nM | 26.9 nM | 18 nM | 19.9 nM | 50.9 nM | 43.2 nM | 35.6 nM | 
CC1(C)[C@@H]2[C@@H](C(=O)N[C@H](C=O)C[C@@H]3CCNC3=O)N(C(=O)c3cc4cccc(C(F)(F)F)c4[nH]3)C[C@@H]21 [Compound 29, (1R,2S,5S)-6,6-dimethyl-N—((S)-1-oxo-3-((S)-2-oxopyrrolidin-3-yl)propan-2-yl)-3-(7-(trifluoromethyl)-1H-indole-2-carbonyl)-3-azabicyclo[3.1.0]hexane-2-carboxamide] | 296 nM | 35.2 nM | 18.3 nM | 53.5 nM | 93.9 nM | 87 nM | 47.4 nM | 
CC1(C)[C@@H]2[C@@H](C(=O)N[C@H](C=O)C[C@@H]3CCNC3=O)N(C(=O)c3cc4sccc4[nH]3)C[C@@H]21 [Compound 30, (1R,2S,5S)-6,6-dimethyl-N—((S)-1-oxo-3-((S)-2-oxopyrrolidin-3-yl)propan-2-yl)-3-(4H-thieno[3,2-b]pyrrole-5-carbonyl)-3-azabicyclo[3.1.0]hexane-2-carboxamide] | 239 nM | 51.1 nM | 18.6 nM | 26 nM | 49.7 nM | 43.8 nM | 24.5 nM | 
COc1cccc2[nH]c(C(=O)N3CC4(CC4)C[C@H]3C(=O)N[C@H](C=O)C[C@@H]3CCNC3=O)cc12 [Compound 31, (S)-5-(4-Methoxy-1H-indole-2-carbonyl)-N—((S)-1-oxo-3-((S)-2-oxopyrrolidin-3-yl)propan-2-yl)-5-azaspiro[2.4]heptane-6-carboxamide] | 188 nM | 34 nM | 18.9 nM | 14.2 nM | 49.3 nM | 22.2 nM | 31.7 nM | 
CC1(C)[C@@H]2[C@@H](C(=O)N[C@H](C=O)C[C@@H]3CCNC3=O)N(C(=O)c3cc4cccc(C#N)c4[nH]3)C[C@@H]21 [Compound 32, (1R,2S,5S)-3-(7-cyano-1H-indole-2-carbonyl)-6,6-dimethyl-N—((S)-1-oxo-3-((S)-2-oxopyrrolidin-3-yl)propan-2-yl)-3-azabicyclo[3.1.0]hexane-2-carboxamide] | 177 nM | 36.3 nM | 19.7 nM | 21.8 nM | 59.6 nM | 52.4 nM | 35.4 nM | 
Cc1cccc2cc(C(=O)N3C[C@H]4[C@@H]([C@H]3C(=O)N[C@H](C=O)C[C@@H]3CCNC3=O)C4(C)C)[nH]c12 [Compound 33, (1R,2S,5S)-6,6-Dimethyl-3-(7-methyl-1H-indole-2-carbonyl)-N—((S)-1-oxo-3-((S)-2-oxopyrrolidin-3-yl)propan-2-yl)-3-azabicyclo[3.1.0]hexane-2-carboxamide] | 227 nM | 34 nM | 19.7 nM | 37.9 nM | 78 nM | 83.2 nM | 43.5 nM | 
CC(C)c1cccc2[nH]c(C(=O)N3C[C@H]4[C@@H]([C@H]3C(=O)N[C@H](C=O)C[C@@H]3CCNC3=O)C4(C)C)cc12 [Compound 34, (1R,2S,5S)-3-(4-isopropyl-1H-indole-2-carbonyl)-6,6-dimethyl-N—((S)-1-oxo-3-((S)-2-oxopyrrolidin-3-yl)propan-2-yl)-3-azabicyclo[3.1.0]hexane-2-carboxamide] | 278 nM | 35.3 nM |  | 20.8 nM | 65.3 nM | 57.9 nM | 37.7 nM | 19.8 nM
NC(=O)C(=O)[C@H](C[C@@H]1CCNC1=O)NC(=O)[C@@H]1CC2(CC2)CN1C(=O)c1cc2ccccc2[nH]1 [Compound 35, (S)—N—((S)-4-Amino-3,4-dioxo-1-((S)-2-oxopyrrolidin-3-yl)butan-2-yl)-5-(1H-indole-2-carbonyl)-5-azaspiro[2.4]heptane-6-carboxamide] | 179 nM | 65.8 nM | 20.3 nM | 11.4 nM | 48.5 nM | 64.4 nM | 37.4 nM | 
COc1ccc(F)c2[nH]c(C(=O)N3C[C@H]4[C@@H]([C@H]3C(=O)N[C@H](C=O)C[C@@H]3CCNC3=O)C4(C)C)cc12 [Compound 36, (1R,2S,5S)-3-(7-Fluoro-4-methoxy-1H-indole-2-carbonyl)-6,6-dimethyl-N—((S)-1-oxo-3-((S)-2-oxopyrrolidin-3-yl)propan-2-yl)-3-azabicyclo[3.1.0]hexane-2-carboxamide] | 245 nM | 31.7 nM | 20.6 nM | 35.7 nM | 51.7 nM | 42.7 nM | 33.2 nM | 
C[C@@H](C(=O)N1C[C@H]2[C@@H]([C@H]1C(=O)N[C@H](C=O)C[C@@H]1CCNC1=O)C2(C)C)c1ccccc1 [Compound 37, (1R,2S,5S)-6,6-dimethyl-N—((S)-1-oxo-3-((S)-2-oxopyrrolidin-3-yl)propan-2-yl)-3-((R)-2-phenylpropanoyl)-3-azabicyclo[3.1.0]hexane-2-carboxamide] | 242 nM | 40.4 nM | 20.6 nM | 36.4 nM | 188 nM | 36.7 nM | 45.6 nM | 
